Measurements taken from patent publication US8557797B2, “Triazolopyridine derivatives and their therapeutic use” (Chiesi Farmaceutici S.p.A., priority 2009, dated 2013).

What was measured:
[1] = target: T1, p38α (Homo sapiens, UniProt Q16539); assay: p38 Kinase Assay (ATF-2 phosphorylation ELISA); assay type: biochemical; settings: 2 h pre-incubation, ATP 250 μM, 1% DMSO; read-out: p38α inhibition (IC50 values)
T1 construct: purchased Calbiochem 559324; host or cells: E. coli
Description: Human recombinant p38 enzyme expressed in E. coli and activated by incubation with MKK6 enzyme (Calbiochem #559324) is used as source of enzyme activity.
The assay is carried in high binding, clear, flat bottom 96 well assay plates which have been coated with recombinant ATF-2 (Biosource #PHF0043). Test compounds are incubated with p38 kinase for 2 h prior to initiating the kinase assay by the addition of ATP to obtain an assay concentration of 250 μM. Phosphorylation of ATF-2 is detected and quantified using an ELISA. This consists of sequential incubation in the presence of anti-phospho-ATF2, biotinylated anti-IgG and streptavidin-HRP. Incubation with an HRP chromogenic substrate (TMB) results in absorbance that is proportional to the amount of phosphorylated substrate produced. Absorbance is detected using a multiwell plate reader.
Compounds are diluted in DMSO prior to addition to assay buffer, the final DMSO concentration in the assay being 1%.
The IC50 is defined as the concentration at which a given compound achieves 50% inhibition of control.

[2] = system: TNFα release from LPS activated THP-1 cells or PBMC's; assay: p38 Functional Assay (TNFα release after LPS); assay type: cell-based; settings: Homo sapiens, 1 h pre-treatment, 0.3% DMSO, read-out: EC50 (inhibition of TNFα release)
Description: Inhibition of cellular p38 depresses the release of TNFα, a functional response which is quantified by measurement of the amount of TNFα in the supernatants of LPS activated THP-1 cells (an immortalised monocytic cell line) or peripheral blood mononuclear cells (PBMC's) isolated from freshly drawn human blood.
Cells seeded in 96 well plates are pre-treated by the addition of p38 inhibitors for 1 h followed by addition of lipopolysaccharide (LPS) to activate cytokine production and release. The amount of TNFα released into the cell supernatants is quantified using an R&D Systems enzyme linked immunosorbant assay (ELISA) kit (product DY210) following the manufacturers instructions.
Compounds are diluted in DMSO prior to addition, the final DMSO concentration in the assay being 0.3%. The EC50 is defined as the concentration at which a given compound achieves 50% inhibition of the control.

[3] = system: BAL cell influx induced by tobacco smoke; assay: Tobacco smoke induced pulmonary inflammation, mouse model of COPD inflammation; assay type: in vivo; settings: mice, intranasal, 30, 100 or 300 μg/kg, 4 days TS, BAL 24 h after final exposure (FIG. 1)
Description: Pre-clinical mouse model of COPD inflammation—Tobacco smoke induced pulmonary inflammation. […] In this exposure protocol, mice were exposed in groups of 5 in individual clear polycarbonate chambers (27 cm×16 cm×12 cm). The TS from the cigarettes was allowed to enter the exposure chambers at a flow rate of 100 ml/min. In order to minimise any potential problems caused by repeated exposure to a high level of TS (6 cigarettes), the exposure of the mice to TS was increased gradually over the exposure period to a maximum of 6 cigarettes. The exposure schedule used for 4 days was as follows: Bronchoalveolar lavage was performed as follows: the trachea was cannulated using a Portex nylon intravenous cannula (pink luer fitting) shortened to approximately 8 mm. […] The cell pellet was re-suspended in a known volume of PBS and total cell numbers calculated by counting a stained (Turks stain) aliquot under a microscope using a haemocytometer. […] When dried and cover-slipped, differential cells were counted using light microscopy. Up to 400 cells were counted by unbiased operator using light microscopy. […] All results are presented as individual data points for each animal and the mean value was calculated for each group. […] Percentage inhibitions were automatically calculated within the Excel spreadsheets for the cell data using the formula below: […]

T1 sequence (Q16539 whole entry): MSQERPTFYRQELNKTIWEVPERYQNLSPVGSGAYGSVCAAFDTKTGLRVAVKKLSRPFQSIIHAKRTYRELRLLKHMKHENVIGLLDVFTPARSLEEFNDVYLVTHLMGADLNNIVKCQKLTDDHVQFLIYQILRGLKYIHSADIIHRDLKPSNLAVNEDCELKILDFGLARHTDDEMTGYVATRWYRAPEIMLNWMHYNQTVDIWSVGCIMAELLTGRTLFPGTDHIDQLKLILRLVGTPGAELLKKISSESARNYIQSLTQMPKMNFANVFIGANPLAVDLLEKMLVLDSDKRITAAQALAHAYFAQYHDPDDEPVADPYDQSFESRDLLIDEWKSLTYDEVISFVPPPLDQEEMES

Cc1ccc(-n2nc(C(C)(C)C)cc2NC(=O)Nc2ccc(Sc3ccc4nnc(-c5cccc(OCCN6CCOCC6)c5)n4c3)cc2)cc1 [Example 10, 1-(5-tert-Butyl-2-p-tolyl-2H-pyrazol-3-yl)-3-(4-{3-[3-(2-morpholin-4-yl-ethoxy)-phenyl]-[1,2,4]triazolo[4,3-a]pyridin-6-ylsulfanyl}-phenyl)-urea]
IC50 [1]: 10 to 100 nM | EC50 [2]: 10 to 100 nM | BAL cell influx induced by TS [3]: significantly inhibited
